# Assay results from US20240366565A1, “Use of Verteporfin to Modulate Wound Healing After an Ocular Surgical Procedure or Ocular Injury” (The Board of Trustees of the Leland Stanford Junior …, priority 2021, published 2024).
# Assays:
# [1] = tested on: α-smooth muscle actin (α-SMA, ACTA-2) expression in hMSCs; assay: qPCR of α-smooth muscle actin expression in TGFB-1 treated hMSCs; format: cell-based, human
# Experimental: FIG. 1. Verteporfin reduces expression of α-smooth muscle actin in hMSCs. Human mesenchymal stem cells (hMSCs) were plated in culture. The next day, the following treatments were added in duplicate: 1 μg/mL Verteporfin, 10 μg/mL Verteporfin, 10 ng/ml transforming growth factor beta-1 (TGFB-1), 1 μg/mL Verteporfin+10 ng/mL TGFB-1, 10 μg/mL Verteporfin+10 ng/ml TGFB-1, Dimethyl sulfoxide (DMSO), and cells without treatment. After 24 hours, the medium was removed, the wells were washed with PBS and then the RNA of the cells were extracted using Trizol and a Quiagen kit. Quantitative polymerase chain reaction (qPCR) was performed. TGFB-1 activation leads to the differentiation of mesenchymal stem cells into myofibroblasts, inducing expression of α-smooth muscle actin (α-SMA) and the extracellular matrix proteins such as collagen which may lead to scarring.
# Human mesenchymal stem cells (hMSCs) were plated in culture. The next day, the following treatments were added in duplicate: 1 μg/mL Verteporfin, 10 μg/mL Verteporfin, 10 ng/ml transforming growth factor beta-1 (TGFB-1), 1 μg/mL Verteporfin+10 ng/ml TGFB-1, 10 μg/mL Verteporfin+10 ng/ml TGFB-1, Dimethyl sulfoxide (DMSO), and cells without treatment. […] Quantitative polymerase chain reaction (qPCR) was performed.
# [2] = tested on: alpha smooth muscle actin (ASMA) in hMSCs; assay: Immunostaining of alpha smooth muscle actin in hMSCs; format: cell-based, human; conditions: 10 ng/ml TGFB-1 with or without verteporfin, 24 hours
# Experimental: FIG. 2. Results of immunostaining alpha smooth muscle actin in hMSCs. The hMSCs, were treated with 10 ng/ml TGFB-1 with or without verteporfin and DMSO for 24 hours. The next day, the cells were fixed and stained for alpha smooth muscle actin (ASMA).
# The hMSCs, treated with 10 ng/ml TGFB-1 with or without verteporfin and DMSO for 24 hours, were fixed and stained for alpha smooth muscle actin (ASMA) the next day.
# [3] = tested on: ki67 (Mki67) expression in hMSCs; assay: qPCR of ki67 expression in hMSCs; format: cell-based, human; conditions: Verteporfin 1 μg/mL and 10 μg/mL, 24 hours
# Experimental: FIG. 3. […] The hMSCs were cultured on plates. The next day, the treatments were added in duplicate: Verteporfin 1 μg/mL, Verteporfin 10 μg/mL, DMSO, and cells without treatment. After 24 hours, the medium was removed, the wells were washed with PBS and then the RNA of the cells were extracted using Trizol and Quiagen kit. qPCR was performed.
# The hMSCs were cultured on plates. The next day, the treatments were added in duplicate: Verteporfin 1 μg/mL, Verteporfin 10 μg/mL, DMSO, and cells without treatment. After 24 hours, the medium was removed, the wells were washed with PBS and then the RNA of the cells were extracted using Trizol and Quiagen kit. qPCR was performed.
# hMSCs = assay: Live/dead cytotoxicity test in hMSCs; format: cell-based, human; conditions: 1 μg/mL and 10 μg/mL, 24 hours
# Experimental: FIG. 4. Verteporfin is not cytotoxic to hMSCs. The hMSCs were treated with verteporfin at concentrations of 1 μg/mL and 10 μg/mL for 24 hours. Cells were treated with 10% DMSO for 40 minutes. The next day, the live/dead solution was added to the cells.
# The hMSCs were treated with verteporfin at concentrations of 1 μg/mL and 10 μg/mL for 24 hours. Cells were treated with 10% DMSO for 40 minutes. The next day, the live/dead solution was added to the cells.
# [4] = tested on: bleb survival after glaucoma filtration surgery; assay: Rabbit model of glaucoma filtration surgery; format: in vivo, New Zealand White rabbits; conditions: subconjunctival injection into the bleb after surgery, various concentrations, versus BSS control eye
# Experimental: FIGS. 5A-5B. Efficacy of verteporfin in reducing scarring and increasing bleb survival. The efficacy of verteporfin in reducing scarring and increasing bleb survival was evaluated in a rabbit model of glaucoma filtration surgery. Glaucoma filtration surgery was performed in both eyes of New Zealand White rabbits. In one eye, various concentrations of verteporfin or Mitomycin C was injected subconjunctivally into the bleb after surgery. In the contralateral eye, BSS was injected after surgery as a control. Bleb appearance and survival were evaluated postoperatively at least twice a week. Bleb survival was the primary endpoint. […] There were no post-surgical complications in all groups, including corneal edema, bleb leak, anterior chamber inflammation, iris involvement, cataract or infection (FIG. 5B).
# The efficacy of verteporfin in reducing scarring and increasing bleb survival was evaluated in a rabbit model of glaucoma filtration surgery. Glaucoma filtration surgery was performed in both eyes of New Zealand White rabbits. In one eye, various concentrations of verteporfin or Mitomycin C was injected subconjunctivally into the bleb after surgery. In the contralateral eye, BSS was injected after surgery as a control. Bleb appearance and survival were evaluated postoperatively at least twice a week. Bleb survival was the primary endpoint.
# [5] = tested on: corneal scarring after anterior lamellar keratectomy; assay: Rat model of corneal injury (anterior lamellar keratectomy); format: in vivo; conditions: ALK cut depth around 50%, 10 μg/mL in Provisc gel subconjunctivally on Day 0, read at day 3, versus untreated eyes
# Experimental: FIG. 6. Efficacy of verteporfin in reducing corneal scarring. Anterior lamellar keratectomy (ALK) with a cut depth of around 50% was performed in a rat model of corneal injury. 10 μg/mL verteporfin (in Provisc gel) was subconjunctivally injected after ALK on Day 0.
# Anterior lamellar keratectomy (ALK) with a cut depth of around 50% was performed in a rat model of corneal injury. 10 μg/mL verteporfin (in Provisc gel) was subconjunctivally injected after ALK on Day 0.
# skin wounds = conditions: cited from earlier work
Substance,"expression of alpha-SMA (qPCR) ([1]; 10 ng/ml TGFB-1 + 1 or 10 μg/mL Verteporfin, 24 hours)",expression of ASMA (immunostaining) [2],"expression of ki67 (Mki67), marker of cell proliferation (qPCR) [3]",cytotoxicity (live/dead) (hMSCs),bleb survival [4],corneal scarring [5],"scar formation in skin wounds (skin wounds; mice, injection into skin wounds)",side effects on dosing in the skin (skin wounds; previous animal studies),"expression of alpha-SMA (ACTA-2) (qPCR) ([1]; 10 ng/ml TGFB-1 alone, after 24 hours)"
Verteporfin,statistically reduced the expression of alpha-SMA in a dose dependent manner,reduces the expression of ASMA,did not increase the expression of ki67,not cytotoxic,trend towards increased survival,reduced corneal scarring,prevented scar formation,minimal side effects,–
transforming growth factor beta-1 [TGFB-1],–,–,–,–,–,–,–,–,statistically increased the expression of alpha-SMA
